{
  "source": "patent EP4813403A1",
  "about": "“USE OF GLP-1R/GIPR DOUBLE-TARGET AGONIST IN PREPARING ANIMAL DRUG” (Hangzhou Zhongmeihuadong Pharmaceutical Co., Ltd., priority 2023, dated 2025)",
  "key": {"[1]": {"experiment": "Pharmacokinetics in C57 mice", "conditions": "C57, mouse, in vivo", "method": "After subcutaneous or intravenous administration to C57 mice, plasma was collected and the drug concentration in plasma was determined to illustrate the in vivo pharmacokinetic properties of the compound according to the present invention. […] 20.0 µL of thawed plasma sample was taken. 20 µL of 50% aqueous methanol solution (containing 100 ng mL^-1 Tolbutamide) and 60 µL of acetonitrile were added sequentially to precipitate protein. The mixture was vortexed for 5 minutes, and centrifuged at 4815 rpm for 8 minutes. 50.0 µL of the supernatant was taken, into which 50.0 µL of 0.5% aqueous formic acid solution was added. The mixture was vortexed for 5 minutes. 50 µL of the mixture solution was sampled and injected into the LC-MS/MS to determine the drug concentration in plasma. Based on the drug concentration in plasma of the compounds in C57 mice, the pharmacokinetic parameters were calculated by applying the software Winnolin 8.3 in a non-compartmental model, and the results were shown in Table 7 and Table 8 below. Table 7 Average Pharmacokinetic Parameters after Single Subcutaneous Administration to Mice"}, "db/db mice [2]": {"tested_on": "db/db mice", "experiment": "Multiple administration experiment on db/db mice", "type": "in vivo", "conditions": "for AUC 4-25 day Glu / D28 FBG(Fasting Blood Glucose) / Liver Weight / Serum ALT / Serum TBIL / Serum TG: db/db mice, s.c. every 3 days for 4 weeks, Mean±SEM, 6 mice", "method": "\"Minimum effective dose\" as disclosed in the present invention refers to the minimum administration dose at which the drug effect is produced.\n\"Efficacy dose\" as disclosed in the present invention refers to the administration dose at which the drug effect is produced.\nIn this study, 7-8 week old male db/db mice were used. The db/db mice were placed in an individual ventilated cage (IVC) facility with a controlled temperature (20-26°C) and humidity (40-70%) and a controlled 12:12 h light-dark cycle. The mice received food and water ad libitum. Blood were sampled at the tail tip, and the base blood glucose was measured by a Roche blood glucose meter. The mice were randomly divided into groups according to the initial blood glucose and initial body weight (n=6/group), and each group had similar body weight and blood glucose.\nThe mice were subcutaneously administrated every 3 days for 4 weeks. Subcutaneous administration was conducted on days 1, 4, 7, 10, 13, 16, 19, 22 and 25. Random blood glucose was recorded every 3 days throughout the study. On day 28, the fasting blood glucose was measured. Then the blood was collected by orbital blood sampling. After the orbital blood sampling, the animals were sacrificed, and the liver was taken and weighed. After 1 to 2 hours, the collected blood was centrifuged at 3000 rpm for 10 min to separate the serum. Biochemical indicators such as triglyceride (TG), alanine aminotransferase (ALT), and total bilirubin (TBIL) were determined with a biochemical analyzer. The data results were statistically analyzed using GraphPad Prism8, and the statistical differences among the groups were analyzed following T-Test. Significant differences were identified at p<0.05."}, "db/db mice [3]": {"tested_on": "db/db mice", "experiment": "Pharmacodynamic effects in db/db mice, single subcutaneous administration (blood glucose)", "type": "in vivo", "conditions": "single s.c. 10 nmol/kg", "how_it_was_run": "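Male db/db mice aged 8-9 weeks, fed ad libitum, were grouped by initial glucose and body weight (n=6) and dosed once subcutaneously. Random blood glucose from tail tip was tracked over 0 to 120 hours against vehicle. Hypoglycemic duration is the longest time with a significant difference from vehicle (T-test, p<0.05).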"}, "[4]": {"experiment": "Repeated administration on male rats for 2 weeks (toxicity, toxicokinetics)", "type": "in vivo, SD male rats", "method": "77 SD male rats (SPF grade) were selected and randomly divided into 10 groups based on body weight. Group 1 was the vehicle control group, including 5 animals. […] Group 5 to Group 7 were the groups administrated with the test substance 1; and Group 8 to Group 10 were the groups administrated with the test substance 2, each group including 8 animals, wherein 5 animals for primary test, and 3 animals for toxicokinetics test, and the administration dose was 1, 3 and 10 mg/kg respectively. Each of the above groups was continuously administered twice a week for 2 weeks (administrating at Day 1, Day 5, Day 8, Day 12 and Day 15).\nDuring the experiment, the cage condition monitoring, detailed clinical observations, determination of the food consumption, determination of body weight, measurement of the blood biochemical and hematology indicator, investigation of the gross anatomy, weighing of the organ, studying on toxicokinetic were performed on all the groups of the animals.\nOriginal data during each time period was tabulated. The average values and standard deviations and/or group change were calculated for each assay endpoint based on the group and sex. For each endpoint, the administrated group will be compared with the control group in the following aspect. A logarithmic conversion was performed to the endpoint data as desired prior to the start of the specific analyses."}},
  "data": [
    {"smiles": "CC[C@H](C)[C@H](NC(=O)C(C)(C)NC(=O)[C@H](Cc1ccc(O)cc1)NC(=O)[C@H](CC(=O)O)NC(=O)[C@H](CO)NC(=O)[C@@H](NC(=O)C(C)(Cc1ccccc1)NC(=O)[C@@H](NC(=O)CNC(=O)[C@H](CCC(=O)O)NC(=O)C(C)(C)NC(=O)[C@@H](N)Cc1ccc(O)cc1)[C@@H](C)O)[C@@H](C)O)C(=O)NC(C)(C)C(=O)N[C@@H](CC(C)C)C(=O)N[C@@H](CC(=O)O)C(=O)N[C@@H](CCCCN)C(=O)N[C@@H](CCC(N)=O)C(=O)N[C@@H](C)C(=O)N[C@@H](CCC(N)=O)C(=O)N[C@@H](C)C(=O)N[C@@H](CCC(=O)O)C(=O)N[C@@H](Cc1ccccc1)C(=O)N[C@H](C(=O)N[C@@H](CCCCNC(=O)COCCOCCNC(=O)COCCOCCNC(=O)CC[C@H](NC(=O)CCCCCCCCCCCCCCCCCCCCC(=O)O)C(=O)O)C(=O)N[C@@H](Cc1c[nH]c2ccccc12)C(=O)N[C@@H](CC(C)C)C(=O)N[C@@H](CC(C)C)C(=O)N[C@@H](CCCCN)C(=O)NCC(=O)NCC(=O)N1CCC[C@H]1C(=O)N[C@@H](CO)C(=O)N[C@@H](CO)C(=O)NCC(=O)N[C@@H](C)C(=O)N1CCC[C@H]1C(=O)N1CCC[C@H]1C(=O)N1CCC[C@H]1C(=O)N[C@@H](CO)C(=O)N[C@@H](CCCCN)C(N)=O)C(C)C", "note": "(stereo partly drawn) [Compound P014]", "values": [
      {"measurement": "AUC(0-inf)", "setting": "[1]; iv", "result": 18200, "unit": "ng·h/mL"},
      {"measurement": "AUC(0-t)", "setting": "[1]; iv", "result": 17500, "unit": "ng·h/mL"},
      {"measurement": "C0", "setting": "[1]; iv", "result": 1940, "unit": "ng/mL"},
      {"measurement": "half-life", "setting": "[1]; iv", "result": 17.2, "unit": "h"},
      {"measurement": "MRT", "setting": "[1]; iv, MRT(0-t)", "result": 15.7, "unit": "h"},
      {"measurement": "MRT", "setting": "[1]; iv, MRT(0-∞)", "result": 19.2, "unit": "h"},
      {"measurement": "AUC(0-inf)", "setting": "[1]; sc", "result": 30200, "unit": "ng·h/mL"},
      {"measurement": "AUC(0-t)", "setting": "[1]; sc", "result": 27300, "unit": "ng·h/mL"},
      {"measurement": "Cmax", "setting": "[1]; sc", "result": 852, "unit": "ng/mL"},
      {"measurement": "Tmax", "setting": "[1]; sc", "result": 6, "unit": "h"},
      {"measurement": "half-life", "setting": "[1]; sc", "result": 20.3, "unit": "h"},
      {"measurement": "MRT", "setting": "[1]; sc, MRT(0-t)", "result": 22.9, "unit": "h"},
      {"measurement": "MRT", "setting": "[1]; sc, MRT(0-∞)", "result": 30.3, "unit": "h"},
      {"measurement": "Efficacy Dose", "setting": "db/db mice [2]; db/db mice multiple administrations, dose with blood glucose AUC p<0.05 vs. Vehicle", "result": 3, "unit": "nmol/kg"},
      {"measurement": "AUC 4-25 day Glu", "setting": "db/db mice [2]; 3 nmol/kg", "result": "294 ± 40.43", "unit": "mmol·days/L"},
      {"measurement": "D28 FBG(Fasting Blood Glucose)", "setting": "db/db mice [2]; 3 nmol/kg", "result": "10.22 ± 1.58", "unit": "mmol/L"},
      {"measurement": "Liver Weight", "setting": "db/db mice [2]; 3 nmol/kg", "result": "2.26 ± 0.18", "unit": "g"},
      {"measurement": "Serum ALT", "setting": "db/db mice [2]; 3 nmol/kg", "result": "111.24±13.23", "unit": "U/L"},
      {"measurement": "Serum TBIL", "setting": "db/db mice [2]; 3 nmol/kg", "result": "0.58 ± 0.11", "unit": "µmol/L"},
      {"measurement": "Serum TG", "setting": "db/db mice [2]; 3 nmol/kg", "result": "1.39 ± 0.07", "unit": "mmol/L"},
      {"measurement": "AUC 4-25 day Glu", "setting": "db/db mice [2]; 10 nmol/kg", "result": "214.4 ± 33.73", "unit": "mmol·days/L"},
      {"measurement": "D28 FBG(Fasting Blood Glucose)", "setting": "db/db mice [2]; 10 nmol/kg", "result": "10.72 ± 1.75", "unit": "mmol/L"},
      {"measurement": "Liver Weight", "setting": "db/db mice [2]; 10 nmol/kg", "result": "2.1 ± 0.14", "unit": "g"},
      {"measurement": "Serum ALT", "setting": "db/db mice [2]; 10 nmol/kg", "result": "89.9±8.66", "unit": "U/L"},
      {"measurement": "Serum TBIL", "setting": "db/db mice [2]; 10 nmol/kg", "result": "0.58 ± 0.15", "unit": "µmol/L"},
      {"measurement": "Serum TG", "setting": "db/db mice [2]; 10 nmol/kg", "result": "1.29 ± 0.03", "unit": "mmol/L"},
      {"measurement": "AUC 4-25 day Glu", "setting": "db/db mice [2]; 30 nmol/kg", "result": "190.62 ± 26.47", "unit": "mmol·days/L"},
      {"measurement": "D28 FBG(Fasting Blood Glucose)", "setting": "db/db mice [2]; 30 nmol/kg", "result": "13.38 ± 3.38", "unit": "mmol/L"},
      {"measurement": "Liver Weight", "setting": "db/db mice [2]; 30 nmol/kg", "result": "1.89 ± 0.31", "unit": "g"},
      {"measurement": "Serum ALT", "setting": "db/db mice [2]; 30 nmol/kg", "result": "106.47±14.3", "unit": "U/L"},
      {"measurement": "Serum TBIL", "setting": "db/db mice [2]; 30 nmol/kg", "result": "0.36 ± 0.15", "unit": "µmol/L"},
      {"measurement": "Serum TG", "setting": "db/db mice [2]; 30 nmol/kg", "result": "1.14 ± 0.18", "unit": "mmol/L"},
      {"measurement": "inhibition of the blood glucose AUC, times of that of P001", "setting": "db/db mice [3]", "result": 2.6, "unit": "times"},
      {"measurement": "inhibition of the blood glucose AUC, times of that of Tirzepatide", "setting": "db/db mice [3]", "result": 1.7, "unit": "times"},
      {"measurement": "Hypoglycemic Duration", "setting": "db/db mice [3]; Group 1, longest time with p<0.05 vs. vehicle", "result": 104, "unit": "h"},
      {"measurement": "MTD", "setting": "[4]; MTD for 2 weeks, rats", "result": "1980 nmol/kg (MTD for 2 weeks)"},
      {"measurement": "dose at which decrease of the body weight was observed after the first administration", "setting": "[4]; SD male rats", "result": "≥ 1", "unit": "mg/kg"},
      {"measurement": "Gross Anatomy", "setting": "[4]; SD male rats, 1, 3, 10 mg/kg twice a week for 2 weeks", "result": "no abnormalities were found"},
      {"measurement": "accumulation (toxicokinetic)", "setting": "[4]; SD male rats, administered twice a week for 2 weeks", "result": "no substantial accumulation"},
      {"measurement": "MTD at 336 h", "setting": "[4]; Sprague-Dawley, rat, in vivo, SD male rats, administered twice a week for 2 weeks", "result": "≥ 10", "unit": "mg/kg"},
      {"measurement": "Safety Window (based on dosage)", "setting": "[4]; rat 2-week MTD versus efficacy dose", "result": 1319},
      {"measurement": "safety window (based on exposure), times of that of Tirzepatide", "setting": "[4]; rat, in vivo", "result": "more than 4 times"}
    ]}
  ]
}
